Assay [1] is described as follows: off-target signal loss in HeLa-CEM21 co-culture – HeLa F-luc CTL cells, cherry-picked, counter-screen for HIV-1 Env fusion inhibitor project, dose response (AID 652040).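 Also: potency for signal decrease marking cytotoxic or nonspecific inhibition.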 It is filed as functional, cell-based. A general note: The purpose of a counterscreen is to sort out artefacts and off-target activity.
A short description of assay [2]: blockers of HIV-1 envelope-mediated cell-cell fusion – cherry-pick, dose response (AID 652057). It is filed as functional, cell-based.
Assay [3] is described as follows: blockers of HIV-1 ZM109 envelope-driven cell-cell fusion – HeLa effector, CEM target cells, luciferase, cherry-pick, dose response (AID 652058).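 Also: luciferase signal from HIV-1 Env mediated cell-cell fusion of effector and target cells.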 In kind it is functional, cell-based.
Assay [4] is described as follows: HIV-1 AD8 envelope cell-cell fusion blockers – cherry-pick, dose response (AID 652062).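 Also: luciferase signal from cell-cell fusion driven by HIV-1 clade B AD8 Env; potency is for inhibitors of fusion seen as a drop in luminescence.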 In kind it is functional, cell-based.
Assay [5] has as its target Peroxisome proliferator-activated receptor gamma/Nuclear receptor coactivator 1 (Homo sapiens, UniProt P37231). As to the kind of experiment: TR-FRET dose response biochemical High Throughput Screening assay for agonists of the steroid receptor coactivator 1 (SRC-1) recruitment by the peroxisome proliferator-activated receptor gamma (PPAR gamma): non-selective agonists. [Related pubchem assays (depositor defined):AID1300, AID1808, AID504735, AID631]. In kind it is protein assay. In general terms: In TR-FRET formats the signal depends on donor and acceptor labels being close together.

A short description of assay [6]: cells.
Assay [7] addresses Peroxisome proliferator-activated receptor gamma/Nuclear receptor coactivator 2 (Homo sapiens, UniProt P37231). As to the kind of experiment: TR-FRET dose response biochemical High Throughput Screening assay for agonists of the steroid receptor coactivator 2 (SRC-2) recruitment by the peroxisome proliferator-activated receptor gamma (PPAR gamma): non-selective agonists. [Related pubchem assays: 1297, 1032 ]. It is filed as functional.

Assay [8] deals with Major prion protein (Homo sapiens, UniProt P04156). In kind it is functional, cell-based.
Assay [9] addresses Peroxisome proliferator-activated receptor gamma/Nuclear receptor coactivator 3 (Homo sapiens, UniProt P37231). In words: TR-FRET dose response biochemical High Throughput Screening assay for agonists of the steroid receptor coactivator 3 (SRC-3) recruitment by the peroxisome proliferator-activated receptor gamma (PPAR gamma): non-selective agonists. [Related pubchem assays: 1301 (Confirmation screen.), 1048 (Primary screen.)]. In kind it is functional.

Assay [10] deals with T1, Caspase-3 (Homo sapiens, UniProt P42574).
T1 sequence (P42574 whole entry): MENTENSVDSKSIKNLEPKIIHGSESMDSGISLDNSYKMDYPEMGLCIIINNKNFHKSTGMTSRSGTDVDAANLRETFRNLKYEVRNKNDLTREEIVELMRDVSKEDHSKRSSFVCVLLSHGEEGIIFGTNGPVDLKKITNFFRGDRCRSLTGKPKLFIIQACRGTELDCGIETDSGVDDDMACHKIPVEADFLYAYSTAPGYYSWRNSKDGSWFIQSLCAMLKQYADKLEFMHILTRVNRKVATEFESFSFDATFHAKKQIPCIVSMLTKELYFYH
It is filed as functional.

Assay [11] addresses T2, Sentrin-specific protease 8 (Homo sapiens, UniProt Q96LD8).
T2 sequence (Q96LD8 whole entry): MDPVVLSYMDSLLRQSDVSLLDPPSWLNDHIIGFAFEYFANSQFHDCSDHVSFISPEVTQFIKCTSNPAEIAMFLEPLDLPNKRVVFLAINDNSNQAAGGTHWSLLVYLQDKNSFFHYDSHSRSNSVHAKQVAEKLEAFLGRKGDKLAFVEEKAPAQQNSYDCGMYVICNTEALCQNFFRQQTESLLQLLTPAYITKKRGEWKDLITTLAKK
It is filed as functional.

Assay [12] has as its target T3, Sentrin-specific protease 7 (Homo sapiens, UniProt Q9BQF6).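 Also: Luminescence-based dose-response confirmation of ultra-high-throughput screening hits, measuring inhibition of SENP7.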
T3 sequence (Q9BQF6 whole entry): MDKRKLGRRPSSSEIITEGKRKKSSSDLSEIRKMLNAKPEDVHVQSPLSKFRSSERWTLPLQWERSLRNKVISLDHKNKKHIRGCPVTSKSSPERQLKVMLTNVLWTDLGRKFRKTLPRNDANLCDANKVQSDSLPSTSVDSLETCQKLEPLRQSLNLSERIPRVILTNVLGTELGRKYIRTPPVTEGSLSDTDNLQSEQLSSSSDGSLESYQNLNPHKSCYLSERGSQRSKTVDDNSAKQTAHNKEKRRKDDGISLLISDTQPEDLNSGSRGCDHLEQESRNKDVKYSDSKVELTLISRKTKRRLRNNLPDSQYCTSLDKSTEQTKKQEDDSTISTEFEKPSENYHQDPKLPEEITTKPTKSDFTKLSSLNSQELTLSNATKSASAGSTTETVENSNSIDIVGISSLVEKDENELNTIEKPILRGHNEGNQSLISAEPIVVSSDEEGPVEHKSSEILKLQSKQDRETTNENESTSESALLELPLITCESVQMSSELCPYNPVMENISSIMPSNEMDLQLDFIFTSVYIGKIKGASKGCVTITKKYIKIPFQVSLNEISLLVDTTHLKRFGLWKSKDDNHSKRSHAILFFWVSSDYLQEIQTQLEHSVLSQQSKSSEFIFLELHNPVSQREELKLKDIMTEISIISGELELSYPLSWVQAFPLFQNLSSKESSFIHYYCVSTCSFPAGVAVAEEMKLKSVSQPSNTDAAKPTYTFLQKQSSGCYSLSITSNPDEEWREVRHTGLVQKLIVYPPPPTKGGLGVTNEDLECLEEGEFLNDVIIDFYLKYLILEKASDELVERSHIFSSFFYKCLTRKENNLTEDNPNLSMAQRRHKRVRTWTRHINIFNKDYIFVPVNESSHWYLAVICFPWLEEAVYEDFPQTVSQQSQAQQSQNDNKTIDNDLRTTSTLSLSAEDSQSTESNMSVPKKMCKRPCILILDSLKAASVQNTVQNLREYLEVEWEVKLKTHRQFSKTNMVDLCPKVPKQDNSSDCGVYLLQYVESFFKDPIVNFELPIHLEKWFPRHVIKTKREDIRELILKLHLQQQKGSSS
It is filed as functional.

For assay [13], the target named is T4, Sentrin-specific protease 6 (Homo sapiens, UniProt Q9GZR1).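 Also: Luminescence-based dose-response confirmatory assay of SENP6 inhibition, following up an ultra-high-throughput screen.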
T4 sequence (Q9GZR1 whole entry): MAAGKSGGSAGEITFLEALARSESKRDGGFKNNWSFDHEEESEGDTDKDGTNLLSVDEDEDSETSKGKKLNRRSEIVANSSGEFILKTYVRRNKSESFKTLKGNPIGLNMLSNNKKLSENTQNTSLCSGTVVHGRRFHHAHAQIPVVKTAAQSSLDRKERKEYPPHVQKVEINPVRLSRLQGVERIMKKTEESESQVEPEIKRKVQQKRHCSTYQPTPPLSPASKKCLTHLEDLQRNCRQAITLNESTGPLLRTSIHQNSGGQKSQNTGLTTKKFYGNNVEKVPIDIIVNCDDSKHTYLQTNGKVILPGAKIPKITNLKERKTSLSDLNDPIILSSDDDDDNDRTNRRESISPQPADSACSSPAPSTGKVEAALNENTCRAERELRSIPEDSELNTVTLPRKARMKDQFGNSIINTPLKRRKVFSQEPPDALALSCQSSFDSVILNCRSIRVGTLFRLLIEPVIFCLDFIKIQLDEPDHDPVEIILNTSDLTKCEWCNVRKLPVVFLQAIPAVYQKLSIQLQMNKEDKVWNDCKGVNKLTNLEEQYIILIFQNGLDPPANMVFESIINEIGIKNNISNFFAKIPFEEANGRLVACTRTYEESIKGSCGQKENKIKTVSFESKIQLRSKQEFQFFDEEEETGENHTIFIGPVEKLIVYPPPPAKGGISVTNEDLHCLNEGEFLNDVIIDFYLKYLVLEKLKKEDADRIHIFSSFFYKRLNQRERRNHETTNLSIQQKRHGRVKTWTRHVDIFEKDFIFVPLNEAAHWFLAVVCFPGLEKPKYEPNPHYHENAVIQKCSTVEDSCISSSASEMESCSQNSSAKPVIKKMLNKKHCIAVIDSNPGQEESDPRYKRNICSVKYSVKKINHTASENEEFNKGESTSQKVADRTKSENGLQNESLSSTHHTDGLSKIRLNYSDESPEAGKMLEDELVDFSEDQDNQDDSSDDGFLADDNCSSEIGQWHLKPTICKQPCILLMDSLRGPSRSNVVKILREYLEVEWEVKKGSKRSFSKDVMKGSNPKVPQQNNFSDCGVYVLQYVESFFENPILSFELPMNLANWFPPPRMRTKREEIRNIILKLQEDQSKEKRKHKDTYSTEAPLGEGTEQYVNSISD
It is filed as functional.

The target in assay [14] is T5, Apoptotic protease-activating factor 1 (Homo sapiens, UniProt O14727).
T5 sequence (O14727 whole entry): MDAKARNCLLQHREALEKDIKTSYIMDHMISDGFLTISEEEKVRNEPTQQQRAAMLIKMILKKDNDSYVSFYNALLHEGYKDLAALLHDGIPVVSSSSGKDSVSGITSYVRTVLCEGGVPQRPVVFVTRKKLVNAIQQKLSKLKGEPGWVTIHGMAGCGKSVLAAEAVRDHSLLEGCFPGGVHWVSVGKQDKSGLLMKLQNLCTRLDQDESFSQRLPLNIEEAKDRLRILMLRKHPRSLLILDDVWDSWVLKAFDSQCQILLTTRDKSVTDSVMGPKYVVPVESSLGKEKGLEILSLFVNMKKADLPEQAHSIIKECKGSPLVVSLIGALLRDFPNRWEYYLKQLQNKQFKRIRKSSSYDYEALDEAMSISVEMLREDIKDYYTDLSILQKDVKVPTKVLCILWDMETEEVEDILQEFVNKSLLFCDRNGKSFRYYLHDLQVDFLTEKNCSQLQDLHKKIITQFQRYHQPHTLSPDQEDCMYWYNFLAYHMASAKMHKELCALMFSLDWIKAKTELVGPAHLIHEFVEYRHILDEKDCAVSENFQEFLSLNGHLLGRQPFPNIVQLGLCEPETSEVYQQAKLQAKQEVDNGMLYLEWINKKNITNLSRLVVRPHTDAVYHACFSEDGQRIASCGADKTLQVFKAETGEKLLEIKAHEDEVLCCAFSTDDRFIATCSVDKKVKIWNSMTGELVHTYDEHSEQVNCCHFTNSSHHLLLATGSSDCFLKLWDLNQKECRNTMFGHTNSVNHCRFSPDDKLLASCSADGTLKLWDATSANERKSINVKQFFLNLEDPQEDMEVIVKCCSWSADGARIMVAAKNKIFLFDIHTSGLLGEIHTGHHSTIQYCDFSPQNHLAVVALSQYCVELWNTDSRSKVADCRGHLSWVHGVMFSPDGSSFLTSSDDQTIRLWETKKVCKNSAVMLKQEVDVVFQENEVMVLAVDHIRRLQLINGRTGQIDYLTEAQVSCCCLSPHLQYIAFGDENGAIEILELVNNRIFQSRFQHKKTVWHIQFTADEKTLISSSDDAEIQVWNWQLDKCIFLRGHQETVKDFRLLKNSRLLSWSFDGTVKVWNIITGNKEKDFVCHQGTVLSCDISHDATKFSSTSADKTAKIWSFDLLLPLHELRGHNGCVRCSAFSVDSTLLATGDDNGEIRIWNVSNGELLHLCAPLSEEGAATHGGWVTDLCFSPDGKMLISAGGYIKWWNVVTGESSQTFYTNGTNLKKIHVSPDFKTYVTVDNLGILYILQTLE
In kind it is functional.

The target of assay [15] is Paired box protein Pax-8 (Homo sapiens, UniProt Q06710). In words: PAX8 transcriptional activity inhibition in RMG-I – RMG-I cells, luciferase, cherry-pick, dose response (AID 687027).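 Also: luciferase reporter driven by Pax8 target thyroperoxidase promoter measured by SteadyGlo luminescence.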 It is filed as functional, cell-based.
Assay [16] can be described thus: general cell-killing toxicity readout – plate reader, dry powder samples, cytotoxicity control for PAX8 inhibitor project, dose response (AID 743021). It is filed as functional, cell-based.

From ChEMBL document CHEMBL1201862, “PubChem BioAssay data set” (2004) come the findings set out here.

Activity calls are given as the source filed them.

In the case of `CC(C)CCN(C(=O)c1csnn1)C(C(=O)NC1CCCC1)c1ccc(F)cc1` (centres undefined), the concentration at half-maximal activity (AC50) in assay [1] is 5.56 µM (active); in assay [2], 4.72 µM (active); in assay [3], 7.51 µM (active); in [4], 5.93 µM (active).

In the case of `CCCCNC(=O)CSc1nc(CCC)nc2ccccc12`, the values for the EC50 in [5], in [7] and in assay [9] were > 79.4 µM (inactive), > 79.4 µM (not active) and > 79.4 µM (not active), respectively. Also, the IC50 in [6] was > 138 µM (inactive); in [8] it was 14.7 µM (inactive).

On to `CC(C)OCCCNC1=C(Cl)C(=O)c2ccccc2C1=O`, for which the IC50 in [10] was 6.38 µM (active); in assay [11], 25.7 µM (active); in assay [12], 19.4 µM (active); in [13] it was 8.48 µM (active).

For the compound `O=C(O)c1ccc(NC2=C(N3CCOCC3)C(=O)c3ccccc3C2=O)cc1`, the IC50 in assay [14] is 35.8 µM (active).

For the compound `COc1cc(CNCc2ccc(OC)c3ccccc23)cc(OC)c1OC`, the AC50 was > 70 µM (inactive) in assay [1], 23.8 µM (active) in [2], 31.8 µM (active) in [3] and 51 µM (active) in assay [4].

As to `Clc1ccccc1OCc1nn2c(-c3ccncc3)nnc2s1`, the 50% inhibitory concentration (IC50) in assay [14] is 8.4 µM (active).

Turning to `COc1ccc(Oc2ccc(/C=C/C(=O)c3cccc(OC)c3)cc2[N+](=O)[O-])cc1`, the AC50 in [15] was 14.5 µM (active); in [16], 54.3 µM (active).

With `COc1cccc(N(C(=O)c2ccco2)c2nc(-c3sc(NC(=O)c4ccco4)nc3C)cs2)c1`, the AC50 in [15] is 2.1 µM (active); in assay [16], 62 µM (active).

As to `CCOC(=O)c1cc(-c2cc3ccccc3o2)[nH]n1`, the IC50 is 15.4 µM (active) in [10], 34.8 µM (active) in [11], 5.55 µM (active) in [12] and 21.6 µM (active) in assay [13].

Regarding `COC(=O)C1=C(C)N(Cc2ccc(C(F)(F)F)cc2)C(NCc2ccccc2)=NC1c1cccc(Cl)c1` (centres undefined), the AC50 is 12.3 µM (active) in assay [15] and 20.9 µM (active) in [16].

What is called AC50 is the concentration giving half of the maximal activity seen. As a reminder, the EC50 is the concentration giving half of the maximal effect. The term IC50 denotes the concentration needed to halve the response being measured.
